In ChEMBL document CHEMBL1955725, “Structure-guided lead optimization of triazolopyrimidine-ring substituents identifies potent Plasmodium falciparum dihydroorotate dehydrogenase inhibitors with clinical candidate potential” (J Med Chem, 2011):
Converted amounts (≈) assume the structure as drawn.

System: Plasmodium falciparum
Assay: Antimalarial activity against Plasmodium falciparum 3D7 0087/N9 infected in human RBC engrafted NOD-SCID IL-2Rgamma-null mouse assessed as reduction in parasitemia administered orally 3 days post infection qd for 4 days measured 24 hrs after final dose by FACS analysis
Format: functional
Conditions: 3D7 0087/N9, po

Row | SMILES | ED90 | ED50
1 | C[C@H]1[C@H](OC(=O)CCC(=O)O)O[C@@H]2O[C@@]3(C)CC[C@H]4[C@H](C)CC[C@@H]1[C@@]24OO3 [ARTESUNATE] | 12.7 mg/kg | –
2 | Cc1cc(Nc2cc(F)c(C(F)(F)F)c(F)c2)n2ncnc2n1 | 59 mg/kg | 19 mg/kg
3 | CCN(CC)CCCC(C)Nc1ccnc2cc(Cl)ccc12 (stereo not drawn) [CHLOROQUINE] | 4.9 mg/kg | 3.2 mg/kg

System: Mus musculus
Assay: AUC (0 to 10 hrs) in human RBC engrafted NOD-SCID IL-2Rgamma-null mouse at 10 mg/kg, po
Format: ADME, organism-based, Plasma
Set-up: time < 10 hr, dose 10 mg/kg, route oral
Conditions: in vivo

Row | SMILES | AUC
4 | Cc1cc(Nc2cc(F)c(C(F)(F)F)c(F)c2)n2ncnc2n1 | 3848 µM·min

System: Mus musculus
Assay: AUC (0 to 10 hrs) in human RBC engrafted NOD-SCID IL-2Rgamma-null mouse infected with Plasmodium falciparum 3D7 0087/N9 at 10 mg/kg, po
Format: ADME, organism-based, Plasma
Set-up: time < 10 hr, dose 10 mg/kg, route oral
Conditions: in vivo

Row | SMILES | AUC
5 | Cc1cc(Nc2cc(F)c(C(F)(F)F)c(F)c2)n2ncnc2n1 | 3173 µM·min

System: not listed separately
Assay: Cmax in human RBC engrafted NOD-SCID IL-2Rgamma-null mouse at 10 mg/kg, po
Format: ADME, organism-based
Set-up: dose 10 mg/kg, route oral
Conditions: in vivo

Row | SMILES | Cmax
6 | Cc1cc(Nc2cc(F)c(C(F)(F)F)c(F)c2)n2ncnc2n1 | 8.5 µM

System: not listed separately
Assay: Cmax in human RBC engrafted NOD-SCID IL-2Rgamma-null mouse infected with Plasmodium falciparum 3D7 0087/N9 at 10 mg/kg, po
Format: ADME, organism-based
Set-up: dose 10 mg/kg, route oral
Conditions: in vivo

Row | SMILES | Cmax
7 | Cc1cc(Nc2cc(F)c(C(F)(F)F)c(F)c2)n2ncnc2n1 | 8.2 µM

System: Plasma
Assay: Plasma protein binding in human by chromatographic method
Format: ADME, cell-free
Conditions: not given

Row | SMILES | PPB
8 | CCOc1nc2nc(C)cc(Nc3ccc(C(F)(F)F)cc3)n2n1 | 92.4%
9 | CCc1nc2nc(C)cc(Nc3ccc(S(F)(F)(F)(F)F)cc3)n2n1 | 96.4%
10 | Cc1cc(Nc2ccc(Cl)cc2)n2nc(C(C)(F)F)nc2n1 | 87.9%
11 | Cc1cc(Nc2ccc(S(F)(F)(F)(F)F)cc2)n2nc(C3CC3)nc2n1 | 97.7%
12 | CCC(F)(F)c1nc2nc(C)cc(Nc3ccc(S(F)(F)(F)(F)F)cc3)n2n1 | 97.7%

System: Liver microsomes
Assay: Intrinsic clearance in human liver microsomes
Format: ADME, Microsome
Conditions: not given

Row | SMILES | Intrinsic clearance
13 | CCOc1nc2nc(C)cc(Nc3ccc(C(F)(F)F)cc3)n2n1 | 7 µL/min/mg
14 | CCc1nc2nc(C)cc(Nc3ccc(S(F)(F)(F)(F)F)cc3)n2n1 | < 5 µL/min/mg
15 | Cc1cc(Nc2ccc(Cl)cc2)n2nc(C(C)(F)F)nc2n1 | 16 µL/min/mg
16 | Cc1cc(Nc2ccc(S(F)(F)(F)(F)F)cc2)n2nc(C3CC3)nc2n1 | < 5 µL/min/mg
17 | CCC(F)(F)c1nc2nc(C)cc(Nc3ccc(S(F)(F)(F)(F)F)cc3)n2n1 | < 5 µL/min/mg

System: Liver
Assay: Intrinsic clearance in mouse liver microsomes
Format: ADME, Microsome
Conditions: not given

Row | SMILES | Intrinsic clearance
18 | CCOc1nc2nc(C)cc(Nc3ccc(C(F)(F)F)cc3)n2n1 | 14.4 µL/min/mg
19 | CCc1nc2nc(C)cc(Nc3ccc(S(F)(F)(F)(F)F)cc3)n2n1 | 16.7 µL/min/mg
20 | Cc1cc(Nc2ccc(Cl)cc2)n2nc(C(C)(F)F)nc2n1 | 62.8 µL/min/mg
21 | Cc1cc(Nc2ccc(S(F)(F)(F)(F)F)cc2)n2nc(C3CC3)nc2n1 | 12.6 µL/min/mg
22 | CCC(F)(F)c1nc2nc(C)cc(Nc3ccc(S(F)(F)(F)(F)F)cc3)n2n1 | 6.7 µL/min/mg

System: not listed separately
Assay: Terminal elimination half life in Swiss outbred mouse at 20 mg/kg, po
Format: ADME, organism-based
Set-up: dose 20 mg/kg, route oral
Conditions: in vivo, read-out: beta t1/2 (converted)

Row | SMILES | half-life
23 | CCOc1nc2nc(C)cc(Nc3ccc(C(F)(F)F)cc3)n2n1 | 1.4 h

System: not listed separately
Assay: Cmax in Swiss outbred mouse at 20 mg/kg, po
Format: ADME, organism-based
Set-up: dose 20 mg/kg, route oral
Conditions: in vivo

Row | SMILES | Cmax
24 | CCOc1nc2nc(C)cc(Nc3ccc(C(F)(F)F)cc3)n2n1 | 5.8 µM

System: Mus musculus
Assay: Time plasma concentration remained above 1 uM in Swiss outbred mouse plasma at 20 mg/kg, po
Format: ADME, organism-based
Set-up: dose 20 mg/kg, route oral
Conditions: in vivo

Row | SMILES | Time
25 | CCOc1nc2nc(C)cc(Nc3ccc(C(F)(F)F)cc3)n2n1 | 6 h

System: not listed separately
Assay: AUC (0 to infinity) in Swiss outbred mouse plasma at 20 mg/kg, po
Format: ADME, organism-based
Set-up: time infinity, dose 20 mg/kg, route oral
Conditions: not given

Row | SMILES | AUC(0-inf)
26 | CCOc1nc2nc(C)cc(Nc3ccc(C(F)(F)F)cc3)n2n1 | 20.7 µM·h

System: not listed separately
Assay: Inhibition of Plasmodium berghei C-terminal hexa-His tagged DHODH expressed in Escherichia coli by DCIP reduction assay
Conditions: not given

Row | SMILES | IC50
27 | CCOc1nc2nc(C)cc(Nc3ccc(C(F)(F)F)cc3)n2n1 | 2.7 µM
28 | CCc1nc2nc(C)cc(Nc3ccc(S(F)(F)(F)(F)F)cc3)n2n1 | 1.4 µM
29 | Cc1cc(Nc2ccc(Cl)cc2)n2nc(C(C)(F)F)nc2n1 | 1.7 µM
30 | Cc1cc(Nc2ccc(S(F)(F)(F)(F)F)cc2)n2nc(C3CC3)nc2n1 | 2 µM
31 | CCC(F)(F)c1nc2nc(C)cc(Nc3ccc(S(F)(F)(F)(F)F)cc3)n2n1 | 4.7 µM

System: Plasmodium falciparum
Assay: Antimalarial activity against Plasmodium falciparum 3D7 by [3H]hypoxanthine incorporation assay in presence of human serum
Format: functional, organism-based
Conditions: not given

Row | SMILES | EC50
32 | CCOc1nc2nc(C)cc(Nc3ccc(C(F)(F)F)cc3)n2n1 | 0.058 µM
33 | CCc1nc2nc(C)cc(Nc3ccc(S(F)(F)(F)(F)F)cc3)n2n1 | 0.1 µM
34 | Cc1cc(Nc2ccc(Cl)cc2)n2nc(C(C)(F)F)nc2n1 | 0.05 µM
35 | Cc1cc(Nc2ccc(S(F)(F)(F)(F)F)cc2)n2nc(C3CC3)nc2n1 | 0.5 µM
36 | CCC(F)(F)c1nc2nc(C)cc(Nc3ccc(S(F)(F)(F)(F)F)cc3)n2n1 | 0.55 µM

System: not listed separately
Assay: Lipophilicity, log D of the compound at pH 7.4
Format: physicochemical
Conditions: buffer

Row | SMILES | logD
37 | CCOc1nc2nc(C)cc(Nc3ccc(C(F)(F)F)cc3)n2n1 | 3.1
38 | CCc1nc2nc(C)cc(Nc3ccc(S(F)(F)(F)(F)F)cc3)n2n1 | 3.3
39 | Cc1cc(Nc2ccc(Cl)cc2)n2nc(C(C)(F)F)nc2n1 | 3
40 | Cc1cc(Nc2ccc(S(F)(F)(F)(F)F)cc2)n2nc(C3CC3)nc2n1 | 3.5
41 | CCC(F)(F)c1nc2nc(C)cc(Nc3ccc(S(F)(F)(F)(F)F)cc3)n2n1 | 3.9

System: not listed separately
Assay: Aqueous solubility of the compound at pH 6.5
Format: physicochemical
Conditions: not given

Row | SMILES | solubility
42 | CCOc1nc2nc(C)cc(Nc3ccc(C(F)(F)F)cc3)n2n1 | 19 µM (≈ 6.41 µg/mL)
43 | CCc1nc2nc(C)cc(Nc3ccc(S(F)(F)(F)(F)F)cc3)n2n1 | 34 µM (≈ 12.9 µg/mL)
44 | Cc1cc(Nc2ccc(Cl)cc2)n2nc(C(C)(F)F)nc2n1 | 77 µM (≈ 24.9 µg/mL)
45 | Cc1cc(Nc2ccc(S(F)(F)(F)(F)F)cc2)n2nc(C3CC3)nc2n1 | 16 µM (≈ 6.26 µg/mL)
46 | CCC(F)(F)c1nc2nc(C)cc(Nc3ccc(S(F)(F)(F)(F)F)cc3)n2n1 | 15 µM (≈ 6.44 µg/mL)

Target: T1, Dihydroorotate dehydrogenase (Plasmodium falciparum, UniProt Q54A96)
T1 sequence (Q54A96 whole entry): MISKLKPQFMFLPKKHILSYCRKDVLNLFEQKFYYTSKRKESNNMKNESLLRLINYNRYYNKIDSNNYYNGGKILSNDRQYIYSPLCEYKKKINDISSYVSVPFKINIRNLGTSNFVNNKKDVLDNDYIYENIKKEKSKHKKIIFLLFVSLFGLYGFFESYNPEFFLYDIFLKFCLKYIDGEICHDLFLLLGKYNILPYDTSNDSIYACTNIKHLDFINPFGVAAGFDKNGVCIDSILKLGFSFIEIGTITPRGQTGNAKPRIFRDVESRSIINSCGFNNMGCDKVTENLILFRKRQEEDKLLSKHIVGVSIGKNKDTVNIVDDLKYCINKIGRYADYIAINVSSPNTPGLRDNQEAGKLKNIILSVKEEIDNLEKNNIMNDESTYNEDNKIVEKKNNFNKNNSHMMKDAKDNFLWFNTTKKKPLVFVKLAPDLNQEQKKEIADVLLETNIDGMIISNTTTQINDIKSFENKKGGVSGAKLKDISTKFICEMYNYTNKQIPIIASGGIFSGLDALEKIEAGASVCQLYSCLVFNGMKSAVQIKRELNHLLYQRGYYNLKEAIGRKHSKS
Assay: not given
Conditions: not given

Row | SMILES | IC50
47 | CCOc1nc2nc(C)cc(Nc3ccc(C(F)(F)F)cc3)n2n1 | 0.056 µM
48 | Cc1cc(Nc2ccc(Cl)cc2)n2nc(C(C)(F)F)nc2n1 | 0.038 µM

Target: Dihydroorotate dehydrogenase (quinone), mitochondrial (Homo sapiens, UniProt Q02127)
Assay: not given
Conditions: not given

Dihydroorotate dehydrogenase (quinone), mitochondrial, sequence (Q02127 whole entry): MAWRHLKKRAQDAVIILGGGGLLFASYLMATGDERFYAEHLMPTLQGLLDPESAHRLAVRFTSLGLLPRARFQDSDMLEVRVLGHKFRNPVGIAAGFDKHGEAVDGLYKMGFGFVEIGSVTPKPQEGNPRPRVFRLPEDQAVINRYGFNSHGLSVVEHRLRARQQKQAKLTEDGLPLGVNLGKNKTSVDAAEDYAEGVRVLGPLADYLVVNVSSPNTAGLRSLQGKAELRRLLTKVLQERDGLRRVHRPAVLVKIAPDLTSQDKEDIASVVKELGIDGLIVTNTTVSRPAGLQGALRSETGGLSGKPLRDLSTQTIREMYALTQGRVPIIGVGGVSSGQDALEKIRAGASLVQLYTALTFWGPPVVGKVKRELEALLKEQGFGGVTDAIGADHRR

Row | SMILES | IC50
49 | CCOc1nc2nc(C)cc(Nc3ccc(C(F)(F)F)cc3)n2n1 | > 100 µM
50 | CCc1nc2nc(C)cc(Nc3ccc(S(F)(F)(F)(F)F)cc3)n2n1 | > 100 µM
51 | Cc1cc(Nc2ccc(Cl)cc2)n2nc(C(C)(F)F)nc2n1 | > 100 µM
52 | Cc1cc(Nc2ccc(S(F)(F)(F)(F)F)cc2)n2nc(C3CC3)nc2n1 | > 100 µM
53 | CCC(F)(F)c1nc2nc(C)cc(Nc3ccc(S(F)(F)(F)(F)F)cc3)n2n1 | > 100 µM

System: not listed separately
Assay: in vivo
Conditions: NOD-SCID IL-2Rgamma-null, mouse, po, 10 mg/kg

Row | SMILES | Tmax
54 | Cc1cc(Nc2cc(F)c(C(F)(F)F)c(F)c2)n2ncnc2n1 | 2 h

System: not listed separately
Assay: in vivo
Conditions: NOD-SCID IL-2Rgamma-null, mouse, po, 10 mg/kg
Remark: another data set of the same source

Row | SMILES | Tmax
55 | Cc1cc(Nc2cc(F)c(C(F)(F)F)c(F)c2)n2ncnc2n1 | 3.3 h

System: not listed separately
Assay: in vivo
Conditions: Swiss outbred, mouse, po, 20 mg/kg

Row | SMILES | Tmax
56 | CCOc1nc2nc(C)cc(Nc3ccc(C(F)(F)F)cc3)n2n1 | 1 h
